# Test results reported in article PMC10897196, “Structure–activity characteristics of phenylalanine analogs selectively transported by L-type amino acid transporter 1 (LAT1)” (Scientific Reports, 2024).
# “And” between values parts separate entries of the source, which are not always exact repeats. Equal values may be shown once.
# How the values were obtained:
# [1] = biological target: T1, human LAT1 (Homo sapiens, UniProt Q01650); assay: Inhibition of L-[14C]leucine uptake in HEK293-hLAT1 cells; assay type: cell-based; conditions: for Inhibition of LAT1-mediated L-[14C]leucine uptake (in words, rank order): 1 μM L-[14C]leucine, 1 min, compounds at 10, 30, 100 μM; for Ki: L-[14C]leucine uptake, HEK293-hLAT1, mean ± S.E.M., n = 3–4, read-out: Ki (μM) LAT1; for Ki ratio (LAT2/LAT1): LAT1 selectivity, LAT2 Ki over LAT1 Ki
# T1 construct: expressed in transfected cells
# T1 sequence (Q01650 whole entry, one chain of several): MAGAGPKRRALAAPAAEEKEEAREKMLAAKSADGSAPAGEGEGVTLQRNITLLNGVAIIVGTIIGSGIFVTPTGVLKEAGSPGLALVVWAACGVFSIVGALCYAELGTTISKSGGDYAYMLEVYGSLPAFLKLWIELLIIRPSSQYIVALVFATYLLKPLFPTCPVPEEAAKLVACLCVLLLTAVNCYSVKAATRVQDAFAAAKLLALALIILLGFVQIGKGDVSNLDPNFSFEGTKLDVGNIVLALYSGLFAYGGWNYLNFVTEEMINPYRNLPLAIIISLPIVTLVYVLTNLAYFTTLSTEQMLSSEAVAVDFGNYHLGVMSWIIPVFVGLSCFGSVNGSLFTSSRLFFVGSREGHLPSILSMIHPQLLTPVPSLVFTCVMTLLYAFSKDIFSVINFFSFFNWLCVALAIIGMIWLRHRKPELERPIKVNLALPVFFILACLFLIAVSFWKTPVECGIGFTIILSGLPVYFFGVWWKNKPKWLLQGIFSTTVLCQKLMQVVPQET
# Excerpt: (§1) In this study, we used the HEK293 cells stably expressing human LAT1 or human LAT2, which form a heterodimeric complex with endogenous 4F2hc (CD98hc), required for plasma membrane localization. We first explored the impact of halogen group positioning in the benzene ring of Phe (Fig. 1) on its interaction with LAT1 and LAT2. […] We conducted inhibition experiments to measure the uptake of L-[^14C]leucine by LAT1 and L-[^14C]alanine by LAT2 in the presence or absence of Phe derivatives with an iodo group at position 2, 3, or 4 in the benzene ring.
# (§2) The inhibition experiments were performed as described previously. HEK293-hLAT1 (1.5 × 10^5 cells/well) or HEK293-hLAT2 (2 × 10^5 cells/well) cells were plated onto poly-D-lysine-coated 24-well plates (Corning, New York, USA). Following a 2-day culture period, the uptake of 1 μM L-[^14C]leucine or L-[^14C]alanine was measured for 1 min in the absence or presence of non-radiolabeled test compounds at concentrations of 10, 30, and 100 μM. Radioactivity was quantified using a β-scintillation counter (LSC-3100; Aloka, Tokyo, Japan), and protein concentrations were determined with a Micro BCA Protein Assay Kit (Thermo Fisher Scientific, Rockford, IL). To calculate Ki values, the concentration-dependent uptake of L-[^14C]leucine or L-[^14C]alanine was analyzed in the presence and absence of test compounds[49]. The data were plotted against substrate concentration and fitted to Michaelis–Menten kinetics. Ki values were derived using nonlinear regression analysis with the enzyme kinetics inhibition module in GraphPad Prism software (Version 10.0.2; GraphPad Software Inc., San Diego, CA, USA).
# [2] = biological target: T2, human LAT2 (Homo sapiens, UniProt Q9UHI5); assay: Inhibition of L-[14C]alanine uptake in HEK293-hLAT2 cells; assay type: cell-based; conditions: for Inhibition of LAT2-mediated L-[14C]alanine uptake (in words, rank order): 1 μM L-[14C]alanine, 1 min, compounds at 10, 30, 100 μM; for Ki: L-[14C]alanine uptake, HEK293-hLAT2, mean ± S.E.M., n = 3–4, read-out: Ki (μM) LAT2
# T2 construct: expressed in transfected cells
# T2 sequence (Q9UHI5 1-535): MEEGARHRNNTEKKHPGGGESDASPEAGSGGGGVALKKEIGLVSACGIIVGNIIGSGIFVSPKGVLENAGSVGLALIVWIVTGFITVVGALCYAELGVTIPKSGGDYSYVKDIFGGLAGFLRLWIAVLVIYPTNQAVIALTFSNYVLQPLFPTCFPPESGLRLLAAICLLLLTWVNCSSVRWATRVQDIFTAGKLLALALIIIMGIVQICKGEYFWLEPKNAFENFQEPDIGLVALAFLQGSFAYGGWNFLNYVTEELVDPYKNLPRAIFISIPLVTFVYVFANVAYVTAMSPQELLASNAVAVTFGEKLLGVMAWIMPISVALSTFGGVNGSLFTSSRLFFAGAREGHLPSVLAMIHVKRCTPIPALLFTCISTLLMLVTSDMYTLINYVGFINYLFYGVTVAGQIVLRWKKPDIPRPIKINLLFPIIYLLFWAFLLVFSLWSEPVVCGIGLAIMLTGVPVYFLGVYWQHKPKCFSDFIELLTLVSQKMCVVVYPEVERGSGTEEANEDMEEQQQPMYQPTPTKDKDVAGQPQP
# T2 sequence (P08195 1-529 partner): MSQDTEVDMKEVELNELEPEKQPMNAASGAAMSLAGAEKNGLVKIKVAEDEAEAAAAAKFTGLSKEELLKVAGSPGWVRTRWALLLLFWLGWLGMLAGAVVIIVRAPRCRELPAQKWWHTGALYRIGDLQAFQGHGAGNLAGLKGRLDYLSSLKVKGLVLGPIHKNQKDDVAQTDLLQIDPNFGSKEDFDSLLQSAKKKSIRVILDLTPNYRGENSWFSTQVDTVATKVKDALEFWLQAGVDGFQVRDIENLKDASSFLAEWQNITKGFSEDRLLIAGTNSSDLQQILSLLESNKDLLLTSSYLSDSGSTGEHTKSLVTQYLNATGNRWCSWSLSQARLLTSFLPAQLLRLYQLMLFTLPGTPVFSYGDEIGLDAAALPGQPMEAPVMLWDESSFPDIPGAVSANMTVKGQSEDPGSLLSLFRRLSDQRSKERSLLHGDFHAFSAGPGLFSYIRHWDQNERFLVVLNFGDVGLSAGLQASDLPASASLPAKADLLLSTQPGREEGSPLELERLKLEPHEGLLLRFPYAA
# Excerpt: as §1, §2
# [3] = design: method as in PMID 11901210; conditions: correlated with LAT1 Ki; cited from earlier work
# [4] = biological target: T1, human LAT1; assay: Efflux of pre-loaded L-[14C]leucine from HEK293-hLAT1 cells induced by extracellular compounds; assay type: cell-based; conditions: for Km / Vmax of efflux (% radioactivity/min): LAT1, L-[14C]leucine efflux, mean ± S.E.M., n = 3; for Km / Vmax of efflux (% radioactivity/min) / LAT1-mediated L-[14C]leucine efflux induced (in words): 1 min; for LAT1-mediated L-[14C]leucine efflux induced (in words): compounds at 10, 30, 100 μM
# Experimental: (§3) We evaluated the efflux of pre-loaded L-[^14C]leucine from LAT1 and pre-loaded L-[^14C]alanine from LAT2 induced by extracellularly applied compounds.
# (§4) Efflux experiments were performed as described previously. Cells cultured 48 h were pre-loaded with 5 μM L-[^14C]leucine or L-[^14C]alanine for 10 min at 37 °C. The cells were then washed, and the efflux was induced by incubating cells for 1 min in either the absence or presence of non-radiolabeled test compounds at indicated concentrations. The efflux time of 1 min fell within the linear range of time-dependent substrate efflux mediated by LAT1 and LAT2 (Supplementary Fig. S2). Following incubation, the medium was collected and radioactivity was measured in both the medium and the cells. Efflux was quantified as the percentage of radioactivity released into the medium, calculated using the formula: radioactivity of medium/(radioactivity of medium + radioactivity of cells) × 100%.
# (§5) The kinetic parameters for the efflux of L-[^14C]leucine or L-[^14C]alanine induced by various concentrations of extracellularly-applied test compounds were analyzed. The baseline efflux values—those obtained in the absence of test compounds—were subtracted from the values measured in the presence of the compounds. The resultant data were fitted to Michaelis–Menten kinetics to determine the Km and Vmax by nonlinear regression analysis using “enzyme kinetics-velocity as a function of substrate” module within GraphPad Prism software.
# [5] = biological target: T2, human LAT2; assay: Efflux of pre-loaded L-[14C]alanine from HEK293-hLAT2 cells induced by extracellular compounds; assay type: cell-based; conditions: for Vmax of efflux (% radioactivity/min): LAT2, L-[14C]alanine efflux, mean ± S.E.M., n = 3
# Experimental: as §3, §4, §5
"Inhibition of LAT1-mediated L-[14C]leucine uptake (in words, rank order) [1]","Inhibition of LAT2-mediated L-[14C]alanine uptake (in words, rank order) [2]",Ki [1] [µM],Ki ratio (LAT2/LAT1) [1],Ki [2] [µM],Compound,Carbonyl oxygen charge [3],further results
comparable to that of Phe,Phe < 4-I-Phe,–,–,–,N[C@@H](Cc1ccc(I)cc1)C(=O)O [4-I-Phe],–,–
–,–,–,–,–,N[C@@H](Cc1ccc(O)c(O)c1)C(=O)O [L-DOPA],−0.5633,–
inhibit,–,43.5 ± 6.28,2.53,110 ± 20,"N[C@@H](Cc1ccccc1)C(=O)O [Phe, phenylalanine]",–,Km [4]: 8.92 ± 1.08 µM; Vmax of efflux (% radioactivity/min) [4]: 13.32 ± 0.31 % radioactivity/min; Ratio to Vmax of Phe ([4]; LAT1 efflux): (1.00); LAT1-mediated L-[14C]leucine efflux induced (in words) [4]: induced a notable efflux; Vmax of efflux (% radioactivity/min) ([5]; 1 min): 39.60 ± 0.74 % radioactivity/min; Ratio to Vmax of Phe ([5]; LAT2 efflux): (1.00)
inhibit,minimal inhibition,96.8 ± 13.2,2.50,242 ± 20.8,"N[C@H](C(=O)O)c1ccccc1 [Phg, L-phenylglycine]",–,–
–,–,–,–,–,N[C@@H](Cc1ccc(O)cc1)C(=O)O [Tyr],−0.5635,–
–,–,–,–,–,C[C@](N)(Cc1ccc(O)c(O)c1)C(=O)O [α-methyl-DOPA],−0.5558,–
inhibit,minimal inhibition,157 ± 19.5,10.74,1680 ± 272,"C[C@](N)(Cc1ccccc1)C(=O)O [α-methyl-Phe, α-Methyl-L-phenylalanine, reference compound]",–,"Km [4]: 67.9 ± 7.39 µM; Vmax of efflux (% radioactivity/min) [4]: 15.45 ± 0.45 % radioactivity/min; LAT1-mediated L-[14C]leucine efflux induced (in words) [4]: transported by LAT1 as substrates; Vmax of efflux (% radioactivity/min) ([5]; 1 min): 27.28 ± 0.70 % radioactivity/min; LAT2-mediated L-[14C]alanine efflux induced (in words) ([5]; compounds at 10, 30, 100 μM, 1 min): not efficiently transported by LAT2"
–,–,–,–,–,C[C@](N)(Cc1ccc(O)cc1)C(=O)O [α-methyl-Tyr],−0.5579,–

Compound,"Inhibition of LAT1-mediated L-[14C]leucine uptake (in words, rank order) [1]","Inhibition of LAT2-mediated L-[14C]alanine uptake (in words, rank order) [2]",Ki [1] [µM],Ki ratio (LAT2/LAT1) [1],Ki [2] [µM],Carbonyl oxygen charge [3],further results
N[C@@H](Cc1cccc(I)c1)C(=O)O [3-I-Phe],markedly inhibited and 3-Br-Phe < 3-I-Phe,4-I-Phe < 3-I-Phe and 3-Br-Phe < 3-I-Phe,–,–,–,–,–
